Assay results taken from US20200102264A1, “MARMELIN ANALOGS AND METHODS OF USE IN CANCER TREATMENT” (THE UNIVERSITY OF KANSAS, priority 2014, published 2020).

Columns and labels:
SW480 cells [1] = test: colony formation, SW480; type: cell-based
[2] = tested on: MiaPaCa-2 pancreatic cancer cells; test: hexoseaminidase cell proliferation assay, MiaPaCa-2; type: cell-based; details: Homo sapiens, MIA PaCa-2
Protocol: (§1) Using hexoseaminidase assay, we determined the effect of the compounds on cell proliferation. […] The IC50 value at 48 hours is below 10 μM in all the cancer cell lines.
(§2) Using hexoseaminidase assay, we determined the effect of the compounds on cell proliferation. […] The MRL16 IC50 value at 48 hours is below 0.3 μM in Colon cancer cell lines. […] Overall, the analogs can be used as chemotherapeutic agents against colon and pancreatic cancer.

[3] = tested on: HCT116 colon cancer cells; test: hexoseaminidase cell proliferation assay, HCT116; type: cell-based; details: Homo sapiens, HCT-116
Description: (§3) Using hexoseaminidase assay, we determined the effect of the compounds on cell proliferation. […]
(§4) Using hexoseaminidase assay, we determined the effect of the compounds on cell proliferation. […] […] […] Overall, the analogs can be used as chemotherapeutic agents against colon and pancreatic cancer.

SW480 cells [4] = test: cell cycle analysis, SW480; type: cell-based; details: SW480, Table 3
Protocol: The analogs were tested to determine the ability induce death of colon cancer cells.

SW480 colon cancer cells = test: hexoseaminidase cell proliferation assay, SW480; type: cell-based; details: Homo sapiens
Description: as §3, §4

HCT116 cells [5] = test: colony formation, HCT116; type: cell-based
[6] = tested on: transcription factor NF-κB; details: previous studies, Cancer Res. 2008; cited from earlier work
[7] = tested on: PanC-1 pancreatic cancer cells; test: hexoseaminidase cell proliferation assay, PanC-1; type: cell-based; details: Homo sapiens
Protocol: as §1, §2

HCT116 cells [8] = test: cell cycle analysis, HCT116; type: cell-based; details: HCT116, Table 3

IC50 ([2]; MiaPaCa-2, 24 h): > 50 µM
IC50 ([2]; MiaPaCa-2, 48 h): > 50 µM
IC50 ([2]; MiaPaCa-2, 72 h): > 50 µM
IC50 ([3]; HCT116, 24 h): > 50 µM
IC50 ([3]; HCT116, 48 h): > 50 µM
IC50 ([3]; HCT116, 72 h): > 50 µM
IC50 (SW480 colon cancer cells; SW480, 24 h): > 50 µM
IC50 (SW480 colon cancer cells; SW480, 48 h): > 50 µM
IC50 (SW480 colon cancer cells; SW480, 72 h): > 50 µM
IC50 ([7]; PANC-1, 24 h): > 50 µM
IC50 ([7]; PANC-1, 48 h): > 50 µM
IC50 ([7]; PANC-1, 72 h): > 50 µM
Structure (SMILES): COc1cc(OC)c2ccc(C=O)c(O)c2c1 [MRL, 1-hydroxy-5,7-dimethoxy-2-naphthalene-carboxaldehyde, reference compound]
colony formation (SW480 cells [1]): does not appear to significantly inhibit colony formation
G0/G1 (%) (SW480 cells [4]): 65.3%
G2M (%) (SW480 cells [4]): 18.1%
S (%) (SW480 cells [4]): 10.2%
SubG0 Dead Cells (%) (SW480 cells [4]): 6.0%
colony formation (HCT116 cells [5]): does not appear to significantly inhibit colony formation
action of transcription factor NF-κB [6]: can inhibit
G0/G1 (%) (HCT116 cells [8]): 45.3%
G2M (%) (HCT116 cells [8]): 11.4%
S (%) (HCT116 cells [8]): 11.5%
SubG0 Dead Cells (%) (HCT116 cells [8]): 29.9%
